Test system: B16F10 melanoma tumors
Test: In vivo biodistribution of 99mTc complexes in C57B16 mice bearing B16F10 melanoma tumors
Conditions: for mel/blood: melanoma/blood ratio; for mel/liver: melanoma/liver ratio; for mel/lung: melanoma/lung ratio; for mel/spleen: melanoma/spleen ratio
Procedure: To study the tumor uptake of ^99mTc complexes, ^99mTc-Z2-^99mTc-Z4, in vivo biodistribution experiment at 1, 3, 6 hours post intra-venous injection of the ^99mTc-complex were carried out in C57B16 mice bearing B16F10 melanoma tumors. The biodistribution data including melanoma/nontumor (M/NT) ratios for selected organs are summarized in Table 2 as percentage injected dose per gram (% ID/g) (Table 2). […] This is due to washout from no-tumor organs and increased retention in the tumor.

[1] = 3 h postinjection, listed as 99mTc-Z2

Compound: O=C1C[S][99Tc-]23(=[O])[S]CC[N+]2(CCN2CCCCC2)CC[N]13 (stereo not drawn) [Tc-Z2]
- Eyes (1 h postinjection): 13.57 ± 2.1 % ID/g
- blood (1 h postinjection): 0.41 ± 0.08 % ID/g
- brain (1 h postinjection): 0.13 ± 0.03 % ID/g
- heart (1 h postinjection): 0.62 ± 0.10 % ID/g
- kidney (1 h postinjection): 3.50 ± 0.95 % ID/g
- liver (1 h postinjection): 10.28 ± 2.9 % ID/g
- lung (1 h postinjection): 1.29 ± 0.36 % ID/g
- melanoma (tumor uptake) (1 h postinjection): 8.52 ± 0.08 % ID/g
- muscle (1 h postinjection): 0.36 ± 0.06 % ID/g
- spleen (1 h postinjection): 0.90 ± 0.22 % ID/g
- melanoma (tumor uptake) (1 h postinjection, listed as 99mTc-Z2): 8.52 % ID/g
- mel/blood (1 h postinjection): 16.49 ± 6.7
- mel/liver (1 h postinjection): 0.64 ± 0.21
- mel/lung (1 h postinjection): 4.93 ± 1.13
- mel/spleen (1 h postinjection): 7.94 ± 2.79
- Eyes (3 h postinjection): 13.55 ± 2.49 % ID/g
- blood (3 h postinjection): 0.22 ± 0.02 % ID/g
- brain (3 h postinjection): 0.06 ± 0.01 % ID/g
- heart (3 h postinjection): 0.22 ± 0.02 % ID/g
- kidney (3 h postinjection): 1.64 ± 0.15 % ID/g
- liver (3 h postinjection): 3.32 ± 0.67 % ID/g
- lung (3 h postinjection): 0.49 ± 0.03 % ID/g
- melanoma (tumor uptake) (3 h postinjection): 7.56 ± 1.69 % ID/g
- muscle (3 h postinjection): 0.11 ± 0.01 % ID/g
- spleen (3 h postinjection): 0.93 ± 0.78 % ID/g
- melanoma (tumor uptake) [1]: 7.56 % ID/g
- mel/blood (3 h postinjection): 34.80 ± 10.2
- mel/liver (3 h postinjection): 2.29 ± 0.30
- mel/liver [1]: 2.29
- mel/lung (3 h postinjection): 15.48 ± 3.91
- mel/spleen (3 h postinjection): 17.28 ± 10.2
- Eyes (6 h postinjection): 8.89 ± 1.55 % ID/g
- blood (6 h postinjection): 0.12 ± 0.02 % ID/g
- brain (6 h postinjection): 0.03 ± 0.01 % ID/g
- heart (6 h postinjection): 0.10 ± 0.02 % ID/g
- kidney (6 h postinjection): 0.84 ± 0.08 % ID/g
- liver (6 h postinjection): 3.10 ± 0.31 % ID/g
- lung (6 h postinjection): 0.31 ± 0.03 % ID/g
- melanoma (tumor uptake) (6 h postinjection): 5.39 ± 0.36 % ID/g
- muscle (6 h postinjection): 0.04 ± 0.01 % ID/g
- spleen (6 h postinjection): 1.19 ± 0.6 % ID/g
- melanoma (tumor uptake) (6 h postinjection, listed as 99mTc-Z2): 3.71 % ID/g
- mel/blood (6 h postinjection): 43.14 ± 4.9
- mel/liver (6 h postinjection): 1.71 ± 0.13
- mel/lung (6 h postinjection): 16.9 ± 1.41
- mel/spleen (6 h postinjection): 5.10 ± 2.59
- tumor retention (in words) (over time): significant tumor retention

Compound: O=C1C[S][99Tc-]23(=[O])[S]CC[N+]2(CCCN2CCOCC2)CC[N]13 (stereo not drawn) [Tc-Z3]
- Eyes (1 h postinjection): 4.85 ± 0.63 % ID/g
- blood (1 h postinjection): 0.35 ± 0.11 % ID/g
- brain (1 h postinjection): 0.08 ± 0.02 % ID/g
- heart (1 h postinjection): 0.49 ± 0.11 % ID/g
- kidney (1 h postinjection): 2.62 ± 1.50 % ID/g
- liver (1 h postinjection): 17.75 ± 2.56 % ID/g
- lung (1 h postinjection): 2.08 ± 0.60 % ID/g
- melanoma (tumor uptake) (1 h postinjection): 2.36 ± 0.25 % ID/g
- muscle (1 h postinjection): 0.38 ± 0.11 % ID/g
- spleen (1 h postinjection): 3.19 ± 1.05 % ID/g
- mel/blood (1 h postinjection): 7.49 ± 2.79
- mel/liver (1 h postinjection): 0.14 ± 0.03
- mel/lung (1 h postinjection): 1.26 ± 0.57
- mel/spleen (1 h postinjection): 0.85 ± 0.44
- Eyes (3 h postinjection): 4.72 ± 0.62 % ID/g
- blood (3 h postinjection): 0.10 ± 0.02 % ID/g
- brain (3 h postinjection): 0.01 ± 0.00 % ID/g
- heart (3 h postinjection): 0.14 ± 0.02 % ID/g
- kidney (3 h postinjection): 1.02 ± 0.13 % ID/g
- liver (3 h postinjection): 12.58 ± 1.4 % ID/g
- lung (3 h postinjection): 0.87 ± 0.35 % ID/g
- melanoma (tumor uptake) (3 h postinjection): 2.74 ± 0.24 % ID/g
- muscle (3 h postinjection): 0.09 ± 0.02 % ID/g
- spleen (3 h postinjection): 3.16 ± 0.46 % ID/g
- mel/blood (3 h postinjection): 26.65 ± 4.9
- mel/liver (3 h postinjection): 0.22 ± 0.03
- mel/lung (3 h postinjection): 3.24 ± 1.79
- mel/spleen (3 h postinjection): 0.87 ± 0.17

From patent US8747810B2, “Compositions and methods for imaging tissues, organs and tumors” (President and Fellows of Harvard College, priority 2009, dated 2014)
